Test results from patent US11319315B2, “Cyclohexyl acid triazole azoles as LPA antagonists” (BRISTOL-MYERS SQUIBB COMPANY, priority 2017, dated 2022).
pIC50: −log10 of the molar value.

Molecular target: T1, human LPA1 (Homo sapiens, UniProt Q92633)
T1 construct: expressed in transfected cells; host or cells: Chinese hamster ovary (CHO) cells
Test: LPA1 functional antagonist assay (LPA-induced calcium flux in CHO cells overexpressing human LPA1)
Type: cell-based
Conditions: inhibition of calcium flux induced by 10 nM LPA, CHO cells overexpressing human LPA1; read-out: hLPA1 IC50
Outline: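 Calcium flux was triggered by 10 nM LPA after 20 min room-temperature compound pre-incubation (final 0.08 nM to 5 μM, 0.5% DMSO) in human LPA1-overexpressing CHO cells carrying calcium dye. Buffer: HBSS with Ca/Mg, 20 mM HEPES, 0.1% fatty-acid-free BSA; IC50s from 4-parameter logistic fits.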

T1 sequence (Q92633 whole entry): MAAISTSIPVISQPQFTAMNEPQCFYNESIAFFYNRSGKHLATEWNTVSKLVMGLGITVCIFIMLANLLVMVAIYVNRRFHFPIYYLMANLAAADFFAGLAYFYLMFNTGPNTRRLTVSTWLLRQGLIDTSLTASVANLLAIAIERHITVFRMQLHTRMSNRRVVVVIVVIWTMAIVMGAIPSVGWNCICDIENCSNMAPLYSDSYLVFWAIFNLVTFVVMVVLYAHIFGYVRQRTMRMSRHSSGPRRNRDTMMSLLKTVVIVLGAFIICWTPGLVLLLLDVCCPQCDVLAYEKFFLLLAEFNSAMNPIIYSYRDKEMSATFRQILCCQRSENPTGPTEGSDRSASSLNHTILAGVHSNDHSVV

| pIC50 | SMILES |
| --- | --- |
| 6.10 | CSc1nnn(Cc2c(-c3ccc(O[C@H]4CCC[C@H](C(=O)O)C4)c(C)n3)nnn2C)n1 [Example 353, (1S,3S)-3-{[2-methyl-6-(1-methyl-5-{[5-(methylsulfanyl)-2H-1,2,3,4-tetrazol-2-yl]methyl}-1H-1,2,3-triazol-4-yl)pyridin-3-yl]oxy}cyclohexane-1-carboxylic acid] |
| 6.65 | Cc1nc(-c2nnn(C)c2Cn2nnnc2C2CCC2)ccc1O[C@H]1CCC[C@H](C(=O)O)C1 [Example 354, (1S,3S)-3-[(6-{5-[(5-cyclobutyl-1H-1,2,3,4-tetrazol-1-yl)methyl]-1-methyl-1H-1,2,3-triazol-4-yl}-2-methylpyridin-3-yl)oxy]cyclo-hexane-1-carboxylic acid] |
| 7.49 | Cc1nc(-c2nnn(C)c2Cn2nnc(C3CCC3)n2)ccc1O[C@H]1CCC[C@H](C(=O)O)C1 [Example 355, (1S,3S)-3-[(6-{5-[(5-cyclobutyl-2H-1,2,3,4-tetrazol-2-yl)methyl]-1-methyl-1H-1,2,3-triazol-4-yl}-2-methylpyridin-3-yl)oxy]cyclohexane-1-carboxylic acid] |
| 6.84 | Cc1nc(-c2nnn(C)c2Cn2nnnc2CC2CCC2)ccc1O[C@H]1CCC[C@H](C(=O)O)C1 [Example 356, (1S,3S)-3-{[6-(5-{[5-(cyclobutyl-methyl)-1H-1,2,3,4-tetrazol-1-yl]methyl}-1-methyl-1H-1,2,3-triazol-4-yl)-2-methylpyridin-3-yl]oxy}cyclohexane-1-carboxylic acid] |
| 6.48 | Cc1nc(-c2nnn(C)c2Cn2nnnc2CCC2CC2)ccc1O[C@H]1CCC[C@H](C(=O)O)C1 [Example 357, (1S,3S)-3-{[6-(5-{[5-(2-cyclopro-pylethyl)-1H-1,2,3,4-tetrazol-1-yl]methyl}-1-methyl-1H-1,2,3-triazol-4-yl)-2-methylpyridin-3-yl]oxy}cyclohexane-1-carboxylic acid] |
| 6.50 | CCCCNc1nnn(Cc2c(-c3ccc(O[C@H]4CCC[C@H](C(=O)O)C4)c(C)n3)nnn2C)n1 [Example 362, (1S,3S)-3-((6-(5-((5-(butylamino)-2H-tetrazol-2-yl)methyl)-1-methyl-1H-1,2,3-triazol-4-yl)-2-methyl-pyridin-3-yl)oxy)cyclohexane-1-carboxylic acid] |

Same assay, conditions: read-out: hLPA1 IC50

| SMILES | pIC50 |
| --- | --- |
| Cc1nc(-c2nnn(C)c2Cn2nnc(N(CC3CC3)CC3CC3)n2)ccc1O[C@H]1CCC[C@H](C(=O)O)C1 [Example 358, (1S,3S)-3-((6-(5-((5-(bis(cyclo-propylmethyl)amino)-2H-tetrazol-2-yl)methyl)-1-methyl-1H-1,2,3-triazol-4-yl)-2-methylpyridin-3-yl)oxy)cyclohexane-1-carboxylic acid] | 6.02 |
| Cc1nc(-c2nnn(C)c2Cn2nnc(NCC3CC3)n2)ccc1O[C@H]1CCC[C@H](C(=O)O)C1 [Example 359, (1S,3S)-3-((6-(5-((5-((cyclopropylmethyl)amino)-2H-tetrazol-2-yl)methyl)-1-methyl-1H-1,2,3-triazol-4-yl)-2-methylpyridin-3-yl)oxy)cyclohexane-1-carboxylic acid] | 6.37 |
| Cc1nc(-c2nnn(C)c2Cc2nnn(CC3CC3)n2)ccc1O[C@H]1CCC[C@H](C(=O)O)C1 [Example 360, (1S,3S)-3-((6-(5-((2-(cyclopropyl-methyl)-2H-tetrazol-5-yl)methyl)-1-methyl-1H-1,2,3-triazol-4-yl)-2-methylpyridin-3-yl)oxy)cyclo-hexane-1-carboxylic acid] | 7.04 |
| CCCCN(C)c1nnn(Cc2c(-c3ccc(O[C@H]4CCC[C@H](C(=O)O)C4)c(C)n3)nnn2C)n1 [Example 361, (1S,3S)-3-((6-(5-((5-(butyl(methyl)amino)-2H-tetrazol-2-yl)methyl)-1-methyl-1H-1,2,3-triazol-4-yl)-2-methylpyridin-3-yl)oxy)cyclo-hexane-1-carboxylic acid] | 6.64 |
| CCCCN(CCCC)c1nnn(Cc2c(-c3ccc(O[C@H]4CCC[C@H](C(=O)O)C4)c(C)n3)nnn2C)n1 [Example 363, (1S,3S)-3-((6-(5-((5-(dibutylamino)-2H-tetrazol-2-yl)methyl)-1-methyl-1H-1,2,3-triazol-4-yl)-2-methyl-pyridin-3-yl)oxy)cyclohexane-1-carboxylic acid] | 6.64 |

More lines, now with the values ahead:

| pIC50 | SMILES |
| --- | --- |
| 6.56 | Cc1nc(-c2nnn(C)c2Cn2nnc(N(C)Cc3ccccc3)n2)ccc1O[C@H]1CCC[C@H](C(=O)O)C1 [Example 364, (1S,3S)-3-((6-(5-((5-(benzyl(methyl)amino)-2H-tetrazol-2-yl)methyl)-1-methyl-1H-1,2,3-triazol-4-yl)-2-methylpyridin-3-yl)oxy)cyclohexane-1-carboxylic acid] |
| 6.49 | CCCCn1nnnc1Cc1c(-c2ccc(O[C@H]3CCC[C@H](C(=O)O)C3)c(C)n2)nnn1C [Example 365, (1S,3S)-3-((6-(5-((1-butyl-1H-tetrazol-5-yl)methyl)-1-methyl-1H-1,2,3-triazol-4-yl)-2-methylpyridin-3-yl)oxy)cyclohexane-1-carboxylic acid] |
| 7.37 | CCCCn1nnc(Cc2c(-c3ccc(O[C@H]4CCC[C@H](C(=O)O)C4)c(C)n3)nnn2C)n1 [Example 366, (1S,3S)-3-((6-(5-((2-butyl-2H-tetrazol-5-yl)methyl)-1-methyl-1H-1,2,3-triazol-4-yl)-2-methylpyridin-3-yl)oxy)cyclohexane-1-carboxylic acid] |
| 5.80 | Cc1nc(-c2nnn(C)c2Cn2nnc(N(Cc3ccccc3)Cc3ccccc3)n2)ccc1O[C@H]1CCC[C@H](C(=O)O)C1 [Example 367, (1S,3S)-3-((6-(5-((5-(dibenzyl-amino)-2H-tetrazol-2-yl)methyl)-1-methyl-1H-1,2,3-triazol-4-yl)-2-methylpyridin-3-yl)oxy)cyclo-hexane-1-carboxylic acid] |
| 5.99 | Cc1nc(-c2nnn(C)c2Cn2nnc(NCc3ccccc3)n2)ccc1O[C@H]1CCC[C@H](C(=O)O)C1 [Example 368, (1S,3S)-3-((6-(5-((5-(benzylamino)-2H-tetrazol-2-yl)methyl)-1-methyl-1H-1,2,3-triazol-4-yl)-2-methyl-pyridin-3-yl)oxy)cyclohexane-1-carboxylic acid] |
| 6.91 | Cc1nc(-c2nnn(C)c2Cc2nnnn2Cc2ccccc2)ccc1O[C@H]1CCC[C@H](C(=O)O)C1 [Example 369, (1S,3S)-3-((6-(5-((1-benzyl-1H-tetrazol-5-yl)methyl)-1-methyl-1H-1,2,3-triazol-4-yl)-2-methylpyridin-3-yl)oxy)cyclohexane-1-carboxylic acid] |
| 7.18 | CCc1nc(-c2nnn(C)c2Cn2cc(CC(C)C)nn2)ccc1O[C@H]1CCC[C@H](C(=O)O)C1 [Example 370, (1S,3S)-3-((2-ethyl-6-(5-((4-isobutyl-1H-1,2,3-triazol-1-yl)methyl)-1-methyl-1H-1,2,3-triazol-4-yl)pyridin-3-yl)oxy)cyclohexane-1-carboxylic acid] |
| 5.81 | CCc1nc(-c2nnn(C)c2Cn2cc(C(C)C)nn2)ccc1O[C@H]1CCC[C@H](C(=O)O)C1 [Example 371, (1S,3S)-3-((2-ethyl-6-(5-((4-isopropyl-1H-1,2,3-triazol-1-yl)methyl)-1-methyl-1H-1,2,3-triazol-4-yl)pyridin-3-yl)oxy)cyclohexane-1-carboxylic acid] |
| 6.52 | CCCc1cn(Cc2c(-c3ccc(O[C@H]4CCC[C@H](C(=O)O)C4)c(CC)n3)nnn2C)nn1 [Example 372, (1S,3S)-3-((2-ethyl-6-(1-methyl-5-((4-propyl-1H-1,2,3-triazol-1-yl)methyl)-1H-1,2,3-triazol-4-yl)pyridin-3-yl)oxy)cyclohexane-1-carboxylic acid] |
| 6.87 | Cc1nc(-c2nnn(C)c2Cc2nnn(CC(C)C)n2)ccc1O[C@H]1CCC[C@H](C(=O)O)C1 [Example 373, (1S,3S)-3-((6-(5-((2-isobutyl-2H-tetrazol-5-yl)methyl)-1-methyl-1H-1,2,3-triazol-4-yl)-2-methylpyridin-3-yl)oxy)cyclohexane-1-carboxylic acid] |
| 6.68 | Cc1nc(-c2nnn(C)c2Cc2nnnn2CC(C)C)ccc1O[C@H]1CCC[C@H](C(=O)O)C1 [Example 374, (1S,3S)-3-((6-(5-((1-isobutyl-1H-tetrazol-5-yl)methyl)-1-methyl-1H-1,2,3-triazol-4-yl)-2-methylpyridin-3-yl)oxy)cyclohexane-1-carboxylic acid] |
| 6.23 | CCCCCc1cn(Cc2c(-c3ccc(O[C@H]4CCC[C@H](C(=O)O)C4)c(CC)n3)nnn2C)nn1 [Example 375, (1S,3S)-3-((2-ethyl-6-(1-methyl-5-((4-pentyl-1H-1,2,3-triazol-1-yl)methyl)-1H-1,2,3-triazol-4-yl)pyridin-3-yl)oxy)cyclohexane-1-carboxylic acid] |
| 5.68 | CCn1nnc(NCc2c(-c3ccc(O[C@H]4CCC[C@H](C(=O)O)C4)c(C)n3)nnn2C)n1 [Example 376, (1S,3S)-3-((6-(5-(((2-ethyl-2H-tetrazol-5-yl)amino)methyl)-1-methyl-1H-1,2,3-triazol-4-yl)-2-methylpyridin-3-yl)oxy)cyclohexane-1-carboxylic acid] |
| 5.91 | Cc1nc(-c2nnn(C)c2CN(CC2CC2)c2nnn(CC3CC3)n2)ccc1O[C@H]1CCC[C@H](C(=O)O)C1 [Example 377, (1S,3S)-3-((6-(5-(((cyclopropyl-methyl)(2-(cyclopropylmethyl)-2H-tetrazol-5-yl)amino)methyl)-1-methyl-1H-1,2,3-triazol-4-yl)-2-methylpyridin-3-yl)oxy)cyclohexane-1-carboxylic acid] |
| 6.52 | Cc1nc(-c2nnn(C)c2CNc2nnnn2CC2CC2)ccc1O[C@H]1CCC[C@H](C(=O)O)C1 [Example 378, (1S,3S)-3-((6-(5-(((1-(cyclopropylmethyl)-1H-tetrazol-5-yl)amino)methyl)-1-methyl-1H-1,2,3-triazol-4-yl)-2-methylpyridin-3-yl)oxy)cyclohexane-1-carboxylic acid] |
